What all share (experiment): Bactericidal activity test (MBC measurement)
In one test the test system is S. aureus ATCC 6538. Format: cell-based, Staphylococcus aureus. The procedure: (§1) Each strain was cultured in Trypticase Soy agar medium for 18 to 20 hr, suspended in 0.1% peptone saline, and prepared to OD 600 nm, 1.0 McFarland. The suspension was further diluted with 0.1% peptone saline to give a test bacteria solution (targeted value; 2×10^7 CFU/mL).
(§2) At 0.5, 1 and 3 min from the start of the reaction, a part of the reaction mixture was sampled and mixed with an equal amount of a neutralizing agent (10% Tween 80, 3% lecithin/aqueous solution) to terminate the bactericidal reaction. The reaction mixture was inoculated to a 96 well microplate dispensed with 180 μL of Tripticase Soy liquid medium in advance, and statically cultured at 37° C. for 20 to 24 hr. Thereafter, the presence or absence of growth was visually evaluated, and the minimum concentration at which growth was not observed was taken as the minimal bactericidal concentration (MBC value) of each action time. The numerical values in the Tables show MBC, the unit is μg/mL, S. aureus means Staphylococcus aureus, MRSA means methicillin-resistant Staphylococcus aureus, E. coli means Escherichia coli, and P. aeruginosa means Pseudomonas aeruginosa.

A further test has as its system P. aeruginosa PAO-1. Format: cell-based, Pseudomonas aeruginosa. On the procedure: as §1, §2
A further test concerns P. aeruginosa ATCC 27853. Format: cell-based, Pseudomonas aeruginosa. The procedure: as §1, §2
The test system of another test is MRSA ATCC 33591. The format is cell-based, methicillin-resistant Staphylococcus aureus. On the procedure: as §1, §2
In the next test the test system is E. coli ATCC 25922. Format: cell-based, Escherichia coli. To be noted: Escherichia coli, read-out: MBC. The procedure:
as §1, §2

Where [1] appears, read: ATCC25922, 0.5 min, E. coli ATCC 25922, action time 0.5 min.
Setting [2] is: ATCC25922, 1 min, E. coli ATCC 25922, action time 1 min.
Setting [3] is: ATCC25922, 0.05 h, E. coli ATCC 25922, action time 3 min.
Where [4] appears, read: Staphylococcus aureus, ATCC6538, 0.5 min, S. aureus ATCC 6538, action time 0.5 min, read-out: MBC.
Setting [5] is: Staphylococcus aureus, ATCC6538, 1 min, S. aureus ATCC 6538, action time 1 min, read-out: MBC.
The mark [6] stands for this setting: Staphylococcus aureus, ATCC6538, 0.05 h, S. aureus ATCC 6538, action time 3 min, read-out: MBC.
Setting [7] is: Pseudomonas aeruginosa, ATCC27853, 0.5 min, P. aeruginosa ATCC 27853, action time 0.5 min, read-out: MBC.
The mark [8] stands for this setting: Pseudomonas aeruginosa, ATCC27853, 1 min, P. aeruginosa ATCC 27853, action time 1 min, read-out: MBC.
The mark [9] stands for this setting: Pseudomonas aeruginosa, ATCC27853, 0.05 h, P. aeruginosa ATCC 27853, action time 3 min, read-out: MBC.
[10] abbreviates: Staphylococcus aureus, 0.5 min, MRSA ATCC 33591, action time 0.5 min, read-out: MBC.
Setting [11] is: Staphylococcus aureus, 1 min, MRSA ATCC 33591, action time 1 min, read-out: MBC.
[12] abbreviates: Staphylococcus aureus, 0.05 h, MRSA ATCC 33591, action time 3 min, read-out: MBC.

Values after ≈ are worked out from the molar mass of the structure shown. Like-named read-outs stand apart in the source and are kept apart here.

Broadly, the MBC is the smallest concentration meeting the test's criterion for killing.

Consider “1,6-dihydro-6,6-dimethyl-N^4-decyl-N^2-benzyl-N^2-methyl-1,3,5-triazine-2,4-diamine gluconate [Example 3]”, for which the MBC turned out to be 25 µg/mL against S. aureus ATCC 6538 (S. aureus ATCC 6538, action time 0.5 min); 25 µg/mL against S. aureus ATCC 6538 (S. aureus ATCC 6538, action time 1 min); 25 µg/mL in the test on P. aeruginosa PAO-1 (P. aeruginosa PAO-1, action time 0.5 min); 25 µg/mL against P. aeruginosa PAO-1 (P. aeruginosa PAO-1, action time 1 min); 25 µg/mL with P. aeruginosa PAO-1 (P. aeruginosa PAO-1, action time 3 min); 25 µg/mL in the test on P. aeruginosa ATCC 27853 (P. aeruginosa ATCC 27853, action time 0.5 min). Moreover, the MBC came out at 25 µg/mL in the test with P. aeruginosa ATCC 27853 (P. aeruginosa ATCC 27853, action time 1 min); 25 µg/mL with P. aeruginosa ATCC 27853 (P. aeruginosa ATCC 27853, action time 3 min); 25 µg/mL in the test with MRSA ATCC 33591 (MRSA ATCC 33591, action time 0.5 min); 25 µg/mL against MRSA ATCC 33591 (MRSA ATCC 33591, action time 1 min); 25 µg/mL with MRSA ATCC 33591 (MRSA ATCC 33591, action time 3 min).
As to `CCCCCCCCCCCCNC1=NC(N2CCOCC2)=NCN1` [Example 8, 1,6-dihydro-N-dodecyl-4-(morpholin-4-yl)-1,3,5-triazine-2-amine], the MBC in the test with E. coli ATCC 25922 (setting [1]) is 18.8 µg/mL (≈ 53.5 µM); with E. coli ATCC 25922 (setting [2]) it was 12.5 µg/mL (≈ 35.6 µM); with E. coli ATCC 25922 (setting [3]) it was 9.4 µg/mL (≈ 26.7 µM); in the test with S. aureus ATCC 6538 (setting [4]), 37.5 µg/mL (≈ 107 µM); with S. aureus ATCC 6538 (setting [5]) it was 25 µg/mL (≈ 71.1 µM); with S. aureus ATCC 6538 (setting [6]) it was 9.4 µg/mL (≈ 26.7 µM). For the same compound, the MBC turned out to be 12.5 µg/mL (≈ 35.6 µM) in the test with P. aeruginosa ATCC 27853 (setting [7]); 12.5 µg/mL (≈ 35.6 µM) in the test with P. aeruginosa ATCC 27853 (setting [8]); 9.4 µg/mL (≈ 26.7 µM) with P. aeruginosa ATCC 27853 (setting [9]); 37.5 µg/mL (≈ 107 µM) in the test with MRSA ATCC 33591 (setting [10]); 18.8 µg/mL (≈ 53.5 µM) with MRSA ATCC 33591 (setting [11]); 6.3 µg/mL (≈ 17.9 µM) with MRSA ATCC 33591 (setting [12]).
Take `CC(=O)O.CCCCCCCCCCCCNC1=NC(N2CCN(C)CC2)=NC(C)(C)N1` [Example 10, N-dodecyl-6,6-dimethyl-4-(4-methylpiperazin-1-yl)-1,6-dihydro-1,3,5-triazine-2-amine acetate]: the MBC was determined as 25 µg/mL in the test on E. coli ATCC 25922 (setting [1]); 25 µg/mL with E. coli ATCC 25922 (setting [2]); 25 µg/mL in the test with E. coli ATCC 25922 (setting [3]); 75 µg/mL in the test on S. aureus ATCC 6538 (setting [4]); 50 µg/mL with S. aureus ATCC 6538 (setting [5]); 12.5 µg/mL in the test on S. aureus ATCC 6538 (setting [6]). The MBC came to 25 µg/mL with P. aeruginosa ATCC 27853 (setting [7]); 18.8 µg/mL in the test with P. aeruginosa ATCC 27853 (setting [8]); 18.8 µg/mL with P. aeruginosa ATCC 27853 (setting [9]); 50 µg/mL in the test with MRSA ATCC 33591 (setting [10]); 50 µg/mL in the test on MRSA ATCC 33591 (setting [11]); 12.5 µg/mL in the test on MRSA ATCC 33591 (setting [12]).
For `CC(=O)O.CCCCCCCCCCNC1=NC(N2CCCCC2)=NC(C)(C)N1` [Example 11, N-decyl-6,6-dimethyl-4-(piperidin-1-yl)-1,6-dihydro-1,3,5-triazine-2-amine acetate], the MBC is 18.8 µg/mL with E. coli ATCC 25922 (setting [1]); 18.8 µg/mL in the test with E. coli ATCC 25922 (setting [2]); 18.8 µg/mL with E. coli ATCC 25922 (setting [3]); 50 µg/mL in the test with S. aureus ATCC 6538 (setting [4]); 37.5 µg/mL in the test with S. aureus ATCC 6538 (setting [5]); 25 µg/mL in the test on S. aureus ATCC 6538 (setting [6]). Also, the MBC with P. aeruginosa ATCC 27853 (setting [7]) was determined as 25 µg/mL; with P. aeruginosa ATCC 27853 (setting [8]), 25 µg/mL; in the test with P. aeruginosa ATCC 27853 (setting [9]), 18.8 µg/mL; with MRSA ATCC 33591 (setting [10]), 75 µg/mL; in the test on MRSA ATCC 33591 (setting [11]), 62.5 µg/mL; in the test on MRSA ATCC 33591 (setting [12]), 31.3 µg/mL.
Turning to `CCCCCCCCCCNC1=NC(N2Cc3ccccc3C2)=NC(C)(C)N1` [Example 12, N-decyl-4-(1,3-dihydro-2H-isoindol-2-yl)-6,6-dimethyl-1,6-dihydro-1,3,5-triazine-2-amine], the MBC in the test with E. coli ATCC 25922 (setting [1]) was determined as 18.8 µg/mL (≈ 49 µM); in the test on E. coli ATCC 25922 (setting [2]), 18.8 µg/mL (≈ 49 µM); with E. coli ATCC 25922 (setting [3]), 15.7 µg/mL (≈ 40.9 µM); in the test on S. aureus ATCC 6538 (setting [4]), 25 µg/mL (≈ 65.2 µM); in the test with S. aureus ATCC 6538 (setting [5]), 18.8 µg/mL (≈ 49 µM); with S. aureus ATCC 6538 (setting [6]), 4.7 µg/mL (≈ 12.3 µM). Further, the MBC in the test on P. aeruginosa ATCC 27853 (setting [7]) is 37.5 µg/mL (≈ 97.8 µM); in the test with P. aeruginosa ATCC 27853 (setting [8]), 37.5 µg/mL (≈ 97.8 µM); in the test on P. aeruginosa ATCC 27853 (setting [9]) it was 18.8 µg/mL (≈ 49 µM); with MRSA ATCC 33591 (setting [10]), 25 µg/mL (≈ 65.2 µM); in the test on MRSA ATCC 33591 (setting [11]), 12.5 µg/mL (≈ 32.6 µM); in the test on MRSA ATCC 33591 (setting [12]), 6.3 µg/mL (≈ 16.4 µM).

Source of the values: US20110207926A1, “NOVEL DIHYDROTRIAZINE DERIVATIVE” (HAMARI CHEMICALS, LTD., priority 2008, published 2011).
